Results: US12589090B2, “Compounds and methods for the treatment of degenerative disorders” (Aquilus Pharmaceuticals, Inc., priority 2019, dated 2026)
Where two headings read alike, the source gives them in different places.

Experiments:
[1] = Solubility testing (Example 27); assay type: physicochemical
[2] = In-vivo oral rat pharmacokinetics (Example 15); conditions: male Sprague-Dawley rats, dose level 10 mg/kg, 0.5% MC, plasma, mean
Procedure: Understanding the pharmacokinetics in species typically employed in preclinical animal testing is an essential component of drug discovery. […] Procedure: Six (6) male Sprague-Dawley rats were used. Fasting was conducted at least 16 hours prior to dose administration. Food was returned at approximately 4 hours post dose. The animals were placed into 2 groups of 3 animals per group. The oral (PO) formulation for Groups 1 & 2 were prepared on the day of dosing at a target concentration of 0.5 mg/mL in 0.5% Methylcellulose (400 cps) to produce a white, homogeneous suspension. Dosing was performed as outlined in Table 1:
Whole blood samples (0.250 mL; K2EDTA anticoagulant) were collected from each animal through a jugular vein catheter. Whole blood samples were collected from all animals pre-dose, and at 0.25, 0.5, 1, 2, 4, 8, 16, and 24 hours after dose administration. All blood samples were immediately placed on ice until processing. Whole blood samples were centrifuged at 2200×g for 10 minutes in a refrigerated centrifuge (5±3° C.) to isolate plasma. The plasma samples were transferred to individual polypropylene vials and immediately placed on dry ice before storage at nominally −20±5° C. The plasma samples sometime later were then thawed and extracted and analyzed by high pressure liquid chromatography (HPLC) coupled to Mass Spectrometry (MS) (Table 2). Pharmacokinetic parameters (Table 3) were estimated using WinNonlin® pharmacokinetic software (Version No. 5.2.1) using a non-compartmental approach consistent with the PO route of administration.

[3] = tested on: TDP-43 overexpressed flies; assay: TDP-43 pupal lethality screen (Example 23); assay type: in vivo, Drosophila; conditions: larvae raised on 1 microMolar; DMSO control 51%
Procedure: Procedure: UAS TDP-43 male Drosophila flies were crossed with D42-Gal4 female virgins on fly food containing either DMSO or 1% Compound 118 in dimethyl sulfoxide (DMSO). For DMSO controls, the same volume of DMSO as the corresponding Compound 118 concentration was added. Bromophenol blue was added to a final concentration of around 0.02% to ensure homogeneity. Crosses were made on drug food with three female virgins and two males in each vial and were maintained at 25° C. unless noted. The parents were discarded after 5-7 days and then the vials were screened for adult progeny with straight wings from Day 14 to Day 25. All adults were screened for TDP-43 expression by visualizing the YFP tag. Total number of pupae was counted on Day 25. Percent survival was calculated using the formula (total number of straight-winged adults/total number of pupae)×100. All experiments were performed in triplicate. Read-outs include larval turning assay and pupil lethality screen.
Compound 118 (represented as AQU-118) caused a decrease in lethality from 51% (bottom left) to 39% (bottom right). In this screen the number of adult TDP-43 overexpressed flies that emerge from their pupae stage is compared to w1118 controls. Larvae were raised on either DMSO or Compound 118 at 1 microMolar. N=number of pupae counted. Alive=empty pupal cases, adults have emerged. […]

[4] = Steady state oral/IV rat PK and compound penetration into spine and brain (Example 16); assay type: in vivo, Sprague-Dawley rats; conditions: for concentration at 5 h / AUC(0-inf) / AUC(0-t) / half-life / Cmax: male, Sprague-Dawley; for AUC(0-inf) / AUC(0-t) / half-life / Cmax: plasma
Source text: It is important if one is observing biochemical effects in the spine and brain that one is able to show clear evidence that the compound being tested is in fact able to penetrate to those areas of the body. The present example orally doses compound 118 once per day (SID) for three days to a series of rats. On the third after dosing the rats were then sacrificed after taking blood samples and the level of compound measured in the spine and brain.
Procedure: Twelve (12) male Sprague-Dawley rats were used. Fasting was conducted at least 16 hours prior to dose administration. The animals were placed into 4 groups of 3 animals per group. There was one intravenous (IV) group and three oral gavage (PO) groups (10 mg/Kg, 20 mg/Kg & 40 mg/Kg). The oral (PO) formulation for Groups 2-4 were prepared on the day of dosing at a target concentration of 0.5 mg/mL in 0.5% Methylcellulose (400 cps) to produce a white, homogeneous suspension. The study design is outlined in Table 4:
[…] […] All blood samples were immediately placed on ice until processing. Whole blood samples were centrifuged at 2200×g for 10 minutes in a refrigerated centrifuge (5±3° C.) to isolate plasma. The plasma samples were transferred to individual polypropylene vials and immediately placed on dry ice before storage at nominally −20±5° C. The plasma samples sometime later were then thawed and extracted and analyzed by high pressure liquid chromatography (HPLC) coupled to Mass Spectrometery (MS). Pharmacokinetic parameters were estimated using WinNonlin® pharmacokinetic software (Version No. 5.2.1) using a non-compartmental approach consistent with the PO route of administration. The rodents were then sacrificed. On Day 3, five hours after dosing, animals were euthanized and whole brain and spine were removed, washed with saline and flash frozen until storage at nominally −70° C. before transfer for concentration analysis. The plasma, brain and spinal tissue samples were analyzed for test article concentration using a Research Grade LC-MS/MS Assay.

[5] = rat, iv, 1 mg/kg, DAY 1, 1 mg/kg IV
[6] = rat, iv, 1 mg/kg, DAY 2, 1 mg/kg IV once per day
[7] = rat, iv, 1 mg/kg, DAY 3, 1 mg/kg IV once per day
[8] = rat, po, 10 mg/kg, DAY 1, 10 mg/kg PO
[9] = rat, po, 10 mg/kg, DAY 2, 10 mg/kg PO once per day
[10] = rat, po, 10 mg/kg, DAY 3, 10 mg/kg PO once per day
[11] = rat, po, 20 mg/kg, DAY 1, 20 mg/kg PO
[12] = rat, po, 20 mg/kg, DAY 2, 20 mg/kg PO once per day
[13] = rat, po, 20 mg/kg, DAY 3, 20 mg/kg PO once per day
[14] = rat, po, 40 mg/kg, DAY 1, 40 mg/kg PO
[15] = rat, po, 40 mg/kg, DAY 2, 40 mg/kg PO once per day
[16] = rat, po, 40 mg/kg, DAY 3, 40 mg/kg PO once per day

[2H]C([2H])([2H])c1ccc(C#Cc2ccc(S(=O)(=O)N[C@H](Cc3c[nH]c4ccccc34)C(=O)O)s2)cc1 [Compound 118, (R)-3-(1H-Indol-3-yl)-2-[5-(4-trideuteromethyl-phenylethynyl)-thiophene-2-sulfonylamino]-propionic acid-(D3, 98%)]
solubility in DMSO, acetone and methanol [1]: soluble
solubility in water ([1]; as the free acid): poorly soluble
AUC(0-inf) [2]: 7730 ng·h/mL
AUC(0-t) [2]: 7680 ng·h/mL
Cmax [2]: 2740 ng/mL
half-life [2]: 1.47 h
lethality (dead pupae) [3]: 39%
dose linearity in plasma ([4]; 10, 20 and 40 mg/Kg oral doses, rat): exhibited dose linearity in plasma
concentration at 5 h ([4]; brain, 10-40 mg/Kg daily oral dose, Day 3, rat, highest level at 40 mg/Kg, read-out: Compound level in the brain): 30 to 84 ng/mL
concentration at 5 h ([4]; rat, brain, Day 3, five hours after dosing, 10 mg/kg PO once per day, read-out: Brain): 30.2 ng/mL
concentration at 5 h ([4]; rat, brain, Day 3, five hours after dosing, 20 mg/kg PO once per day, read-out: Brain): 42.1 ng/mL
concentration at 5 h ([4]; rat, brain, Day 3, five hours after dosing, 40 mg/kg PO once per day, read-out: Brain): 84.6 ng/mL
AUC(0-inf) [4, 5]: 1820 ng·h/mL
AUC(0-t) [4, 5]: 1810 ng·h/mL
half-life [4, 5]: 0.97 h
AUC(0-inf) [4, 6]: 1170 ng·h/mL
AUC(0-t) [4, 6]: 1170 ng·h/mL
half-life [4, 6]: 0.936 h
AUC(0-inf) [4, 7]: 1720 ng·h/mL
AUC(0-t) [4, 7]: 1650 ng·h/mL
half-life [4, 7]: 0.89 h
AUC(0-inf) [4, 8]: 3880 ng·h/mL
AUC(0-t) [4, 8]: 3770 ng·h/mL
Cmax [4, 8]: 1170 ng/mL
half-life [4, 8]: 1.29 h
AUC(0-inf) [4, 9]: 4480 ng·h/mL
AUC(0-t) [4, 9]: 4390 ng·h/mL
Cmax [4, 9]: 1340 ng/mL
half-life [4, 9]: 1.24 h
AUC(0-inf) [4, 10]: 12600 ng·h/mL
AUC(0-t) [4, 10]: 4010 ng·h/mL
Cmax [4, 10]: 1450 ng/mL
half-life [4, 10]: 1.59 h
AUC(0-inf) [4, 11]: 6520 ng·h/mL
AUC(0-t) [4, 11]: 6410 ng·h/mL
Cmax [4, 11]: 2140 ng/mL
half-life [4, 11]: 1.2 h
AUC(0-inf) [4, 12]: 4730 ng·h/mL
AUC(0-t) [4, 12]: 4650 ng·h/mL
Cmax [4, 12]: 2150 ng/mL
half-life [4, 12]: 1.28 h
AUC(0-inf) [4, 13]: 10100 ng·h/mL
AUC(0-t) [4, 13]: 8820 ng·h/mL
Cmax [4, 13]: 3850 ng/mL
half-life [4, 13]: 1.02 h
AUC(0-inf) [4, 14]: 15800 ng·h/mL
AUC(0-t) [4, 14]: 15600 ng·h/mL
Cmax [4, 14]: 5020 ng/mL
half-life [4, 14]: 1.01 h
AUC(0-inf) [4, 15]: 12200 ng·h/mL
AUC(0-t) [4, 15]: 12200 ng·h/mL
Cmax [4, 15]: 5570 ng/mL
half-life [4, 15]: 1.02 h
AUC(0-inf) [4, 16]: 15800 ng·h/mL
AUC(0-t) [4, 16]: 15600 ng·h/mL
Cmax [4, 16]: 5020 ng/mL
half-life [4, 16]: 1.01 h
concentration at 5 h ([4]; rat, spine, Day 3, five hours after dosing, 10 mg/kg PO once per day, read-out: Spine): 15.6 ng/mL
concentration at 5 h ([4]; rat, spine, Day 3, five hours after dosing, 20 mg/kg PO once per day, read-out: Spine): 18.3 ng/mL
concentration at 5 h ([4]; rat, spine, Day 3, five hours after dosing, 40 mg/kg PO once per day, read-out: Spine): 31 ng/mL
concentration at 5 h ([4]; spine, 10-40 mg/Kg daily oral dose, Day 3, rat, highest level at 40 mg/Kg, read-out: Compound level in the spine): 15 to 31 ng/mL
